Assays:
[1] = tested on: Cord blood CD34+ hematopoietic progenitor cells; assay: Colony forming unit (CFU) generation from cord blood CD34+ cells; type: cell-based, human; details: IL-3, G-CSF, kit-ligand, vs DMSO
Experimental: FIG. 1. Bar graph indicating results of culturing cord blood CD34+ cells in the presence of Thalidomide (THD), ACTIMID™, and REVIMID™ at concentrations of 1 μg/ml and 10 μg/ml. An equal volume of DMSO was used as a negative control. Hematopoietic colonies of burst forming units-erythroid (BFU-E), colony forming units-erythroid (CFU-E), colony forming units-granulocyte macrophage (CFU-GM) and total numbers of colonies (CFU-Total) were scored under the light microscope at day 14 of culture. Y-axis: numbers of colonies. See Section 6.1 for details.
Cord blood CD34+ hematopoietic progenitor cells were plated in 96 well cultivation dishes at a density of 1000 cells per well in IMDM supplemented with 20% fetal calf serum and cytokines (IL-3, G-CSF and kit-ligand (R&D Systems, Inc.) The cells were exposed to Thalidomide (Thal), ACTIMID™ and REVIMID™, or DMSO (a control compound), and allowed to culture for 6 days. […] After culturing, cells were stained and sorted with a fluorescence activated. cell sorter (FACS). 400 μL of stained cells were harvested and diluted to 1.0 ml with 1% fetal calf serum in phosphate buffered saline (PBS). Cells were counted to determine the effect of modulation of stem cell differentiation.

[2] = tested on: Human Cord Blood CD34+ Cells; assay: FACS analysis of proliferation and differentiation of cord blood CD34+ cells cultured with IL3, G-CSF and Kit-ligand; type: cell-based; details: for CD11b+ Cell Population / CD34+CD38+ Cell Population / CD34+CD38− Cell Population: 7 days
Experimental: CB CD34+ cells were initiated at 4×10^4 cells/ml in a 24-well plate in 20% FCS IMDM (fetal calf serum/Iscove's Modified Dulbecco's Medium) supplemented with cytokines (1 L3, GCSF and Kit-ligand) (R&D Systems, Inc.). Thalidomide (Thal), ACTIMID™ or REVIMID™ were included in the culture at three different concentrations: 5 μg/ml, 1 μg/ml and 0.3 μg/ml. The same volumes of DMSO were used as controls. A negative control without, any compound was also used (indicated by “none” in FIGS. 3-7). Cells were cultured at 37° C. and 5% CO2 in a humidified incubator for 7 days. Cells were then harvested from each well.
The total cell number from each well was determined by counting in a CELL-DYN® 1700 (Abbott Diagnostics) and the expression of CXCR4, CD45, CD34, CD38, CD 1 lb and Gly-A expression was analyzed by FACS (fluorescence-activated cell sorting) staining (FIGS. 3-7).
CB cells from two different donors (CB2276 and CB2417) were cultured, assayed and analyzed separately (Table 1).

[3] = tested on: Human Cord Blood MNC Cells; assay: FACS analysis of cryopreserved and thawed cord blood MNCs after 1 week of culture with cytokines; type: cell-based; details: 5 μg in 1.7 μl DMSO, average +/− SD of three wells
Experimental: Cord blood MNCs that had been cryopreserved and thawed using standard methods were isolated by standard Ficoll separation method and cultured in 24 well-plate at 0.5×10^6 cells/ml in 20% FCS-IMDM with cytokines (1L6, KL and G-CSF 10 ng/ml each) in triplicates. The experimental groups were None (cytokines only), DMSO (1.7 μl), ACTIMID™ (5.0 μg in 1.7 μl DMSO), REVIMID™ (5 μg in 1.7 μl DMSO). The cultured cells were harvested and analyzed by FACS staining after 1 week of culture. The data are expressed as an average +/− SD from three independent wells.

[4] = tested on: Purified human cord blood CD34+ cells; assay: Monocyte production: CD34/CD14 staining of cord blood CD34+ cells cultured 14 days with cytokines; type: cell-based
Experimental: Purified human cord blood CD34+ cells (greater than 90% CD34+) were cultured in 20% FCS IMDM medium supplemented with cytokines (IL3, IL6, G-CSF, KL and Epo) at 4×10^4 cells/ml for 14 days at 37° C. in a humidified 5% CO2 incubator. The experimental groups consisted of a group in which (i) no DMSO or chemical compounds were added (“None”), (ii) DMSO only, (iii) Thalidomide dissolved in DMSO, (iv) ACTIMID™ dissolved in DMSO, and (v) REVIMID™ dissolved in DMSO. Aliquots of cells were harvested and stained with CD34-PE conjugated monoclonal antibody and CD14-FITC conjugated monoclonal antibody.

[5] = tested on: human cord blood CD45+ cells; assay: Flow cytograms of cord blood CD45+ cells cultured 14 days with IL3, IL6, G-CSF, Epo and KL; type: cell-based; details: 5 μg/ml, FIG. 10
Experimental: (§1) FIGS. 9(A-F). Flow cytograms. […] Cord blood CD45+ cells were cultured for 14 days with cytokines IL3, IL6, G-CSF, Epo and KL. Percentages indicated on each cytogram indicate the percentage of the cell population expressing a particular combination of markers. A. Control, immunoglobulin (Ig). B. Control, no compound added. C. DMSO (5 μg/ml). D. Thal (5 μg/ml). E. ACTIMID™ (5 μg/ml). F. REVIMID™ (5 μg/ml). X-axis: relative intensity of CD38 (FL1-H) staining. Y-axis: relative intensity of CD19 (FL2-H) staining. See Section 6.3 for details.
as §1, with “10(A-F).” for “9(A-F).”, “CXCR5” for “CD38”, “CD34” for “CD19”

## Nc1cccc2c1CN(C1CCC(=O)NC1=O)C2=O (stereo not drawn) [REVIMID™, 3-(4-amino-1-oxo-1,3-dihydro-isoindol-2-yl)-piperidine-2,6-dione]
[1]
  generation of erythropoietic colonies (BFU-E and CFU-E): suppress
  generation of leukocyte and platelet forming colonies (CFU-GM): augmenting
  total colony forming unit (CFU-Total) production: enhancing
[2]; FACS analysis of surface proteins
  expression of CXCR4: inhibitory effect
[2]; IL-3, KL and G-CSF, compared with the DMSO control
  yield of cells: slightly higher number of cells
[2]; IL-3, KL and G-CSF, compared with the negative control (none)
  effect on the proliferation of CD34+ cells: do not have a significant effect
[2]; donor CB2276, 0.3 μg/ml
  CD11b+ Cell Population: 13.3%
  CD34+CD38+ Cell Population: 1.7
  CD34+CD38− Cell Population: 9.8
[2]; donor CB2276, 1 μg/ml
  CD11b+ Cell Population: 8.6%
  CD34+CD38+ Cell Population: 1
  CD34+CD38− Cell Population: 10.3
[2]; donor CB2276, 5 μg/ml
  CD11b+ Cell Population: 4.8%
  CD34+CD38+ Cell Population: 0.3
  CD34+CD38− Cell Population: 4.0
[2]; donor CB2417, 0.3 μg/ml
  CD11b+ Cell Population: 11.2%
  CD34+CD38+ Cell Population: 0.9
  CD34+CD38− Cell Population: 3.4
[2]; donor CB2417, 1 μg/ml
  CD11b+ Cell Population: 8.2%
  CD34+CD38+ Cell Population: 0.6
  CD34+CD38− Cell Population: 3.8
[2]; donor CB2417, 5 μg/ml
  CD11b+ Cell Population: 5.5%
  CD34+CD38+ Cell Population: 0.3
  CD34+CD38− Cell Population: 4.2
[2]; treated cell populations
  CD38 status of the majority of CD34+ and CD34− cells: CD38−
[2]; treated cells
  level of CD11b expression by mean immunofluorescence (MIF): decreased
[3]
  CD34(%): 2.34 +/− 0.22%
  CD34+CD38−(%): 0.80 +/− 0.29%
  CXCR4+CD45+(%): 3.6 +/− 0.9%
  CXCR4+CD45−(%): 3.28 +/− 0.89%
  Total CD34+ cells: 7166 +/− 802
  Total cells (1 × 10^6): 0.30 +/− 0 1 × 10^6
[4]; 5 μg/ml, compared to control, FIG. 13
  percentage of monocyte lineage cells: increase
[4]; 14 days, IL3, IL6, G-CSF, KL and Epo, compound dissolved in DMSO
  percentage of CD34+ cells of the total cells: 7.1%
[4]; 14 days, relative to DMSO-treated group
  production of monocytes (CD14+ cells): overcome
[5]
  repression of CXCR5 produced by exposure to DMSO: overcomes the repression
